ChEMBL document CHEMBL3885881, “DrugMatrix”

Species on record: Rattus norvegicus
Experiment: DrugMatrix - Regimen: Daily Repeat
Format: toxicity, organism-based, Sprague-Dawley
Design: regimen Daily Repeat, gender Male, age 6-8 weeks
Conditions: in vivo, po, route oral GAVAGE, vehicle .5 % CMC; for ALANINE AMINOTRANSFERASE / ALBUMIN / ALKALINE PHOSPHATASE / ASPARTATE AMINOTRANSFERASE / BLOOD UREA NITROGEN / CHLORIDE / CHOLESTEROL / CREATINE PHOSPHOKINASE / CREATININE / GLUCOSE / LACTATE DEHYDROGENASE / LIPASE / PHOSPHORUS / POTASSIUM / SODIUM / TOTAL BILIRUBIN / TOTAL PROTEIN / URIC ACID: tissue Plasma
[1] = 0.0007 mg/kg, 2184 h, tissue Blood, dose level Low, time 91 day
[2] = 0.0007 mg/kg, 2184 h, dose level Low, time 91 day
[3] = 0.0007 mg/kg, […], tissue Blood, dose level Low, time 28 day
[4] = 0.0007 mg/kg, […], dose level Low, time 28 day
[5] = 0.001 mg/kg, 72 h, tissue Blood, dose level M1, time 3 day
[6] = 0.001 mg/kg, 72 h, dose level M1, time 3 day

For `Clc1cc2c(cc1Cl)Oc1cc(Cl)c(Cl)cc1O2` [2,3,7,8-TETRACHLORODIBENZO-P-DIOXIN], the EOSINOPHIL [1] was 1.12%, the “ERYTHROCYTE COUNT” value [1] was 9.38 x10E6/uL and the HEMATOCRIT [1] was 50.34%. The HEMOGLOBIN [1] was 16.79 G/DL, the “LEUKOCYTE COUNT” value [1] was 13.03 x10E3/uL and the LYMPHOCYTE [1] was 77.67%. For the same compound, the “MEAN CORPUSCULAR HEMOGLOBIN” value [1] was 17.96 pg, the “MEAN CORPUSCULAR HEMOGLOBIN CONCENTRATION” value [1] was 33.34 G/DL and the “MEAN CORPUSCULAR VOLUME” value [1] was 53.81 fL. For the same compound, the MONOCYTE [1] was 2.14%, the NEUTROPHIL [1] was 16.55% and the “PLATELET COUNT” value [1] was 1320.7 x10E3/uL. The “ALANINE AMINOTRANSFERASE” value [2] was 26.9 u/L, the ALBUMIN [2] was 3.75 G/DL and the “ALKALINE PHOSPHATASE” value [2] was 85.3 u/L. The “ASPARTATE AMINOTRANSFERASE” value [2] was 64.6 u/L, the “BLOOD UREA NITROGEN” value [2] was 14.9 mg/dL and the CHLORIDE [2] was 103.1 MEQ/L. For the same compound, the CHOLESTEROL [2] was 55.9 mg/dL, the “CREATINE PHOSPHOKINASE” value [2] was 76.1 u/L and the CREATININE [2] was 0.51 mg/dL. For the same compound, the GLUCOSE [2] was 150.6 mg/dL, the “LACTATE DEHYDROGENASE” value [2] was 36.1 u/L and the LIPASE [2] was 15.1 u/L. It also gave a PHOSPHORUS [2] of 7.88 mg/dL, a POTASSIUM [2] of 6.11 MEQ/L and an SODIUM [2] of 151 MEQ/L. For the same compound, the “TOTAL BILIRUBIN” value [2] was 0.2 mg/dL, the “TOTAL PROTEIN” value [2] was 7.13 G/DL and the “URIC ACID” value [2] was 0.79 mg/dL. For the same compound, the ABSOLUTE BASOPHIL [3] was 72 cells/µL, the ABSOLUTE EOSINOPHIL [3] was 54 cells/µL and the ABSOLUTE LYMPHOCYTE [3] was 9720 cells/µL. For the same compound, the ABSOLUTE MONOCYTE [3] was 220 cells/µL, the ABSOLUTE SEGMENTED NEUTROPHIL [3] was 1340 cells/µL and the BASOPHIL [3] was 0.62%. For the same compound, the EOSINOPHIL [3] was 0.5%, the “ERYTHROCYTE COUNT” value [3] was 8.2 x10E6/uL and the HEMATOCRIT [3] was 46.2%. The HEMOGLOBIN [3] was 15.3 G/DL, the “LEUKOCYTE COUNT” value [3] was 11.47 x10E3/uL and the LYMPHOCYTE [3] was 84.6%. The “MEAN CORPUSCULAR HEMOGLOBIN” value [3] was 18.64 pg, the “MEAN CORPUSCULAR HEMOGLOBIN CONCENTRATION” value [3] was 33.1 G/DL and the “MEAN CORPUSCULAR VOLUME” value [3] was 56.34 fL. For the same compound, the MONOCYTE [3] was 1.94%, the NEUTROPHIL [3] was 11.78% and the “PLATELET COUNT” value [3] was 1311.4 x10E3/uL. For the same compound, the “ALANINE AMINOTRANSFERASE” value [4] was 24.8 u/L, the ALBUMIN [4] was 3.58 G/DL and the “ALKALINE PHOSPHATASE” value [4] was 148 u/L. The “ASPARTATE AMINOTRANSFERASE” value [4] was 65.4 u/L, the “BLOOD UREA NITROGEN” value [4] was 10.6 mg/dL and the CHLORIDE [4] was 104 MEQ/L. For the same compound, the CHOLESTEROL [4] was 54.8 mg/dL, the “CREATINE PHOSPHOKINASE” value [4] was 83.2 u/L and the CREATININE [4] was 0.44 mg/dL. For the same compound, the GLUCOSE [4] was 147.6 mg/dL, the “LACTATE DEHYDROGENASE” value [4] was 39.8 u/L and the LIPASE [4] was 39.2 u/L. It also gave a PHOSPHORUS [4] of 9.54 mg/dL, a POTASSIUM [4] of 5.96 MEQ/L and an SODIUM [4] of 151.6 MEQ/L. The “TOTAL BILIRUBIN” value [4] was 0.2 mg/dL, the “TOTAL PROTEIN” value [4] was 6.34 G/DL and the “URIC ACID” value [4] was 0.22 mg/dL. For the same compound, the BASOPHIL [5] was 0.47%, the EOSINOPHIL [5] was 0.5% and the “ERYTHROCYTE COUNT” value [5] was 7.09 x10E6/uL. The HEMATOCRIT [5] was 44.53%, the HEMOGLOBIN [5] was 14.13 G/DL and the “LEUKOCYTE COUNT” value [5] was 11.43 x10E3/uL. The LYMPHOCYTE [5] was 82.93%, the “MEAN CORPUSCULAR HEMOGLOBIN” value [5] was 20 pg and the “MEAN CORPUSCULAR HEMOGLOBIN CONCENTRATION” value [5] was 31.8 G/DL. For the same compound, the “MEAN CORPUSCULAR VOLUME” value [5] was 62.87 fL, the MONOCYTE [5] was 2.37% and the NEUTROPHIL [5] was 12.8%. The “PLATELET COUNT” value [5] was 1540.67 x10E3/uL, the “ALANINE AMINOTRANSFERASE” value [6] was 38.33 u/L and the ALBUMIN [6] was 3.6 G/DL. The “ALKALINE PHOSPHATASE” value [6] was 343.33 u/L, the “ASPARTATE AMINOTRANSFERASE” value [6] was 60 u/L and the “BLOOD UREA NITROGEN” value [6] was 12 mg/dL. The CHLORIDE [6] was 103 MEQ/L, the CHOLESTEROL [6] was 88.33 mg/dL and the “CREATINE PHOSPHOKINASE” value [6] was 181.33 u/L. For the same compound, the CREATININE [6] was 0.4 mg/dL and the GLUCOSE [6] was 183.67 mg/dL.
